The source of these data is PubChem BioAssay (NCI).

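Each compound was tested at five concentrations against cells in 96-well plates for 48 hours. The concentration for full growth arrest is given as TGI.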

Among the test systems are CCRF-CEM leukemia; DU-145 prostate; HS 578T breast; IGROV1 ovarian; K-562 leukemia; MDA-MB-231 breast; MDA-MB-435; NCI-H460 lung; OVCAR-3 ovarian; PC-3 prostate; RXF 393 renal; SF-268 CNS; SF-295 CNS; SK-MEL-5 melanoma; SN12C renal; SR leukemia; SW-620 colon; UACC-62 melanoma; NCI-H522 lung.
Test in all cases: inhibition of tumour cell growth, NCI panel, 48 h

Consider `C=CCN1CCC(c2cc(C(=O)OCC)[nH]c2-c2cc(C)no2)C1=O` (configuration not stated), for which the TGI with CCRF-CEM leukemia, with DU-145 prostate, in the assay on HS 578T breast, with IGROV1 ovarian, in the assay on K-562 leukemia and in the assay with MDA-MB-231 breast was greater than 100 µM in each case. The TGI in the assay on MDA-MB-435, with NCI-H460 lung, in the assay with OVCAR-3 ovarian, in the assay on PC-3 prostate, in the assay with RXF 393 renal and with SF-268 CNS was greater than 100 µM each time. In addition, the TGI in the assay with SF-295 CNS, with SK-MEL-5 melanoma, with SN12C renal, in the assay on SR leukemia, in the assay with SW-620 colon and in the assay with UACC-62 melanoma was greater than 100 µM throughout.

As for `CC(C)[C@H]1NC(=O)[C@H]2N=C(S[C@H]2C)[C@@H]2CCCN2C(=O)[C@H](Cc2ccccc2)NC(=O)[C@@H]2CSC(=N2)[C@@H](Cc2ccccc2)NC(=O)[C@@H]2CSC1=N2`, the TGI in the assay with CCRF-CEM leukemia is 46.4 µM; with DU-145 prostate, greater than 50 µM; in the assay with HS 578T breast it was 47 µM; in the assay with IGROV1 ovarian, greater than 50 µM; in the assay on K-562 leukemia it was 23.9 µM; in the assay with MDA-MB-231 breast, greater than 50 µM. In addition, the TGI is greater than 50 µM with MDA-MB-435; 45 µM in the assay on NCI-H522 lung; greater than 50 µM with OVCAR-3 ovarian; greater than 50 µM in the assay on PC-3 prostate; greater than 50 µM with RXF 393 renal; greater than 50 µM with SF-268 CNS. Besides, the TGI with SF-295 CNS was greater than 50 µM; in the assay on SK-MEL-5 melanoma, greater than 50 µM; with SN12C renal, greater than 50 µM; in the assay with SR leukemia, 19.7 µM; in the assay with SW-620 colon it was greater than 50 µM; in the assay with UACC-62 melanoma, greater than 50 µM.

Regarding `Cc1cc(NS(=O)(=O)c2ccc(N=[N+]([O-])c3ccc(S(=O)(=O)Nc4cc(C)on4)cc3)cc2)no1`, the TGI with CCRF-CEM leukemia, with DU-145 prostate, in the assay on HS 578T breast, in the assay on IGROV1 ovarian, with K-562 leukemia and in the assay with MDA-MB-231 breast was greater than 100 µM throughout. The TGI in the assay on MDA-MB-435, in the assay with NCI-H522 lung, in the assay with OVCAR-3 ovarian, with PC-3 prostate, in the assay with RXF 393 renal and in the assay on SF-268 CNS was greater than 100 µM each time. Moreover, the TGI in the assay with SF-295 CNS, in the assay with SK-MEL-5 melanoma, in the assay on SN12C renal, in the assay on SR leukemia and in the assay on UACC-62 melanoma was greater than 100 µM each time.

With `CC(C)(C)O/N=C/c1cc(NC(=S)c2ccsc2)ccc1Cl`, the TGI amounted to 57.3 µM in the assay on CCRF-CEM leukemia; 17.1 µM with DU-145 prostate; 57 µM in the assay with HS 578T breast; 34.9 µM in the assay with IGROV1 ovarian; 32.1 µM in the assay with MDA-MB-231 breast; 38.5 µM in the assay on MDA-MB-435. Besides, the TGI worked out at 33.6 µM in the assay with NCI-H522 lung; 28.1 µM in the assay with OVCAR-3 ovarian; 26.1 µM in the assay on PC-3 prostate; 36.8 µM in the assay on RXF 393 renal; 38.2 µM in the assay with SF-268 CNS; 25.3 µM with SF-295 CNS. Also, the TGI in the assay on SK-MEL-5 melanoma was determined as 16.9 µM; with SN12C renal, 32.2 µM; in the assay on SR leukemia, 13.9 µM; in the assay on SW-620 colon it was 55.2 µM; in the assay with UACC-62 melanoma, 28.8 µM.

As for `C[C@@H]1CC[C@H]2[C@H](C)C(OC3O[C@@H]4O[C@@]5(C)CC[C@H]6[C@H](C)CC[C@@H]([C@@H]3C)[C@@]46O5)O[C@@H]3O[C@@]4(C)CC[C@@H]1[C@]32O4` (some centres not stated), the TGI in the assay on CCRF-CEM leukemia, with DU-145 prostate, in the assay on HS 578T breast, in the assay on K-562 leukemia, in the assay with MDA-MB-231 breast and in the assay on MDA-MB-435 was greater than 100 µM throughout. Further, the TGI with NCI-H460 lung, in the assay with NCI-H522 lung, in the assay on OVCAR-3 ovarian, in the assay on PC-3 prostate, in the assay with SF-268 CNS and in the assay with SF-295 CNS was greater than 100 µM in each case. For the same compound, the TGI in the assay on SK-MEL-5 melanoma, in the assay on SN12C renal, with SR leukemia, with SW-620 colon and in the assay on UACC-62 melanoma was greater than 100 µM throughout.

On to `COC(=O)C(=O)C(C(=O)C(=O)Nc1ccc(C)cc1C)c1nc2ccc(Cl)cc2[nH]c1=O` (configuration not stated), for which the TGI in the assay on CCRF-CEM leukemia, with DU-145 prostate, in the assay with HS 578T breast, in the assay on IGROV1 ovarian, in the assay with MDA-MB-231 breast and with MDA-MB-435 was greater than 100 µM throughout. The TGI in the assay on NCI-H460 lung, in the assay on NCI-H522 lung, in the assay on OVCAR-3 ovarian, with PC-3 prostate, in the assay on RXF 393 renal and in the assay on SF-268 CNS was greater than 100 µM in each case. Besides, the TGI with SF-295 CNS, with SK-MEL-5 melanoma, with SN12C renal, in the assay on SW-620 colon and in the assay on UACC-62 melanoma was greater than 100 µM in each case.

As to `COc1cc2cc(C(=O)N3CC(CCl)c4ccc([N+](C)(C)Cc5ccccc5[N+](=O)[O-])cc43)[nH]c2c(OC)c1OC` (configuration not stated), the TGI in the assay with CCRF-CEM leukemia is greater than 23.8 µM; with DU-145 prostate it was greater than 100 µM; in the assay on HS 578T breast it was 11.7 µM; with IGROV1 ovarian it was 17.7 µM; in the assay with K-562 leukemia, 12.5 µM; in the assay with MDA-MB-231 breast, greater than 31.9 µM. In addition, the TGI with MDA-MB-435 was 5.17 µM; in the assay on NCI-H522 lung it was 0.677 µM; with OVCAR-3 ovarian, greater than 24.6 µM; with PC-3 prostate, 25.9 µM; with RXF 393 renal it was 2.11 µM; with SF-268 CNS it was 9.1 µM. Besides, the TGI with SF-295 CNS is 36.5 µM; with SK-MEL-5 melanoma it was 3.3 µM; with SN12C renal it was 26.4 µM; in the assay with SR leukemia, 4.39 µM; in the assay with SW-620 colon it was greater than 75.9 µM; in the assay with UACC-62 melanoma, 2.76 µM.
